# Experimental data from ChEMBL document CHEMBL1921759, “Antiprotozoal activity of proton-pump inhibitors” (Bioorg Med Chem Lett, 2011).
# What was measured:
# Assay type in all cases: functional, organism-based
# Trichomonas vaginalis [1] = experiment: Antiprotozoan activity against Trichomonas vaginalis
# Giardia intestinalis [2] = experiment: Antiprotozoan activity against Giardia intestinalis; conditions: Giardia duodenalis
# Trichomonas vaginalis [3] = experiment: Antiprotozoan activity against Trichomonas vaginalis GT3 trophozoites compound treated for 48 hrs measured after 48 hrs washout period; conditions: GT3, 48 h
# Giardia intestinalis [4] = experiment: Antiprotozoan activity against Giardia intestinalis IMSS:0989:1 trophozoites compound treated for 48 hrs measured after 48 hrs washout period; conditions: Giardia duodenalis, IMSS:0989:1, 48 h
# Entamoeba histolytica = experiment: Antiprotozoan activity against Entamoeba histolytica HM1-IMSS trophozoites compound treated for 48 hrs measured after 48 hrs washout period
IC50 (Trichomonas vaginalis [1]) [nM],IC50 (Giardia intestinalis [2]) [nM],Structure (SMILES),IC50 (Trichomonas vaginalis [3]) [nM],IC50 (Giardia intestinalis [4]) [nM],IC50 (Entamoeba histolytica) [nM]
72,20,CN(C)CCSc1nc2c(Cl)cc(Cl)cc2[nH]1,–,–,–
–,–,Cc1c(OCC(F)(F)F)ccnc1C[S+]([O-])c1nc2ccccc2[nH]1 (centres undefined) [LANSOPRAZOLE],122,73.1,347
–,–,COc1ccc2[nH]c([S+]([O-])Cc3ncc(C)c(OC)c3C)nc2c1 (centres undefined) [OMEPRAZOLE],122,95.5,492
–,–,COc1ccnc(C[S+]([O-])c2nc3cc(OC(F)F)ccc3[nH]2)c1OC (centres undefined) [PANTOPRAZOLE],75.6,15.7,2.6
–,–,COCCCOc1ccnc(C[S+]([O-])c2nc3ccccc3[nH]2)c1C (centres undefined) [RABEPRAZOLE],106,18.1,23.7
